Holding throughout (format): functional
For test [1], the system named is Aspergillus niger. Briefly: Antifungal activity against Aspergillus niger MTCC 1344 assessed as growth inhibition at 150 ug/ml after 48 hr by agar cup diffusion method. The note with it: MTCC 1344, 48 h, read-out: DIZ.
Test [2] deals with Aspergillus niger. The test can be described thus: Antifungal activity against Aspergillus niger MTCC 1344 assessed as growth inhibition at 100 ug/ml after 48 hr by agar cup diffusion method. To be noted: MTCC 1344, 48 h, read-out: DIZ.
Test [3] has as its system Saccharomyces cerevisiae. The test can be described thus: Antifungal activity against Saccharomyces cerevisiae MTCC 36 assessed as growth inhibition at 150 ug/ml after 48 hr by agar cup diffusion method. The note with it: MTCC 36, 48 h, read-out: DIZ.
Test [4] has as its system Saccharomyces cerevisiae. Briefly: Antifungal activity against Saccharomyces cerevisiae MTCC 36 assessed as growth inhibition at 100 ug/ml after 48 hr by agar cup diffusion method. To be noted: MTCC 36, 48 h, read-out: DIZ.
In test [5] the test system is Diutina rugosa. The test can be described thus: Antifungal activity against Candida rugosa NCIM 3462 assessed as growth inhibition at 150 ug/ml after 48 hr by agar cup diffusion method. The note with it: NCIM 3462, 48 h, read-out: DIZ.
In test [6] the test system is Diutina rugosa. The test can be described thus: Antifungal activity against Candida rugosa NCIM 3462 assessed as growth inhibition at 100 ug/ml after 48 hr by agar cup diffusion method. To be noted: NCIM 3462, 48 h, read-out: DIZ.
For test [7], the system named is Candida albicans. Briefly: Antifungal activity against Candida albicans MTCC 227 assessed as growth inhibition at 150 ug/ml after 48 hr by agar cup diffusion method. To be noted: MTCC 227, 48 h, read-out: DIZ.
The subject of test [8] is Candida albicans. The test can be described thus: Antifungal activity against Candida albicans MTCC 227 assessed as growth inhibition at 100 ug/ml after 48 hr by agar cup diffusion method. The note with it: MTCC 227, 48 h, read-out: DIZ.
In another test the test system is Klebsiella pneumoniae. Briefly: Antibacterial activity against Klebsiella pneumoniae assessed as growth inhibition by broth dilution method.
The subject of another test is Pseudomonas aeruginosa. Briefly: Antibacterial activity against Pseudomonas aeruginosa MTCC 741 assessed as growth inhibition by broth dilution method. In general terms: In broth dilution the organism is exposed to a series of concentrations in liquid medium.
For a further test, the system named is Staphylococcus aureus. Briefly: Antibacterial activity against Staphylococcus aureus MTCC 96 assessed as growth inhibition by broth dilution method. To be noted: read-out: MIC.
A further test concerns Bacillus subtilis. Briefly: Antibacterial activity against Bacillus subtilis MTCC 441 assessed as growth inhibition by broth dilution method.
The test system of test [9] is Staphylococcus epidermidis. The test can be described thus: Antibacterial activity against Staphylococcus epidermidis MTCC 435 assessed as growth inhibition by broth dilution method.
The test system of another test is Escherichia coli. The test can be described thus: Antibacterial activity against Escherichia coli MTCC 443 assessed as growth inhibition by broth dilution method.

The text below walks through data of ChEMBL document CHEMBL3044836, “Synthesis, antimicrobial and cytotoxic activities of novel 4-trifluoromethyl-(1,2,3)-thiadiazolo-5-carboxylic acid hydrazide Schiffs bases” (Med Chem Res, 2013).

Broadly, the MIC is the lowest concentration that inhibits growth of the organism.

In brackets after ≈: the same amount, converted by molar mass.

For `O=C(N/N=C/c1ccc(Cl)cc1)c1snnc1C(F)(F)F`, the zone of inhibition at 150 µg/mL in the test with Aspergillus niger [1], in the test on Saccharomyces cerevisiae [3], in the test on Diutina rugosa [5] and in the test on Candida albicans [7] was 0 mm each time. Further, the zone of inhibition at 100 µg/mL in the test on Aspergillus niger [2], in the test with Saccharomyces cerevisiae [4], with Diutina rugosa [6] and with Candida albicans [8] was 0 mm throughout. In addition, the minimum inhibitory concentration (MIC) in the test on Klebsiella pneumoniae (read-out: MIC) was 150 µg/mL (≈ 448 µM); with Pseudomonas aeruginosa (read-out: MIC), 150 µg/mL (≈ 448 µM); with Staphylococcus aureus, 150 µg/mL (≈ 448 µM); in the test with Bacillus subtilis it was above 150 µg/mL; in test [9], above 150 µg/mL; in the test with Escherichia coli it was above 150 µg/mL.

As for `O=C(N/N=C/c1ccc(Br)cc1)c1snnc1C(F)(F)F`, the zone of inhibition at 150 µg/mL in the test with Aspergillus niger [1], in the test with Saccharomyces cerevisiae [3], with Diutina rugosa [5] and in the test on Candida albicans [7] was 0 mm throughout. The zone of inhibition at 100 µg/mL in the test with Aspergillus niger [2], with Saccharomyces cerevisiae [4], with Diutina rugosa [6] and with Candida albicans [8] was 0 mm each time. For the same compound, the MIC in the test with Klebsiella pneumoniae (read-out: MIC) is 150 µg/mL (≈ 396 µM); in the test on Pseudomonas aeruginosa it was above 150 µg/mL; with Staphylococcus aureus, 150 µg/mL (≈ 396 µM); in the test on Bacillus subtilis, above 150 µg/mL; in test [9] (read-out: MIC) it was 150 µg/mL (≈ 396 µM); in the test on Escherichia coli, above 150 µg/mL.

On to `O=C(N/N=C/c1ccc([N+](=O)[O-])cc1)c1snnc1C(F)(F)F`, for which the zone of inhibition at 150 µg/mL in the test on Aspergillus niger [1], in the test on Saccharomyces cerevisiae [3], with Diutina rugosa [5] and in the test on Candida albicans [7] was 0 mm each time. Also, the zone of inhibition at 100 µg/mL in the test on Aspergillus niger [2], in the test on Saccharomyces cerevisiae [4], in the test on Diutina rugosa [6] and in the test with Candida albicans [8] was 0 mm throughout. Besides, the MIC (in the test on Klebsiella pneumoniae (read-out: MIC); with Pseudomonas aeruginosa (read-out: MIC); with Staphylococcus aureus; in the test with Bacillus subtilis (read-out: MIC); in test [9] (read-out: MIC); in the test with Escherichia coli (read-out: MIC)) was 150 µg/mL (≈ 434 µM) throughout.

In the case of `CN(C)c1ccc(/C=N/NC(=O)c2snnc2C(F)(F)F)cc1`, the zone of inhibition at 150 µg/mL with Aspergillus niger [1], in the test with Saccharomyces cerevisiae [3], in the test with Diutina rugosa [5] and in the test with Candida albicans [7] was 0 mm throughout. The zone of inhibition at 100 µg/mL with Aspergillus niger [2], in the test on Saccharomyces cerevisiae [4], with Diutina rugosa [6] and with Candida albicans [8] was 0 mm in each case. Moreover, the minimal inhibitory concentration (MIC) was above 150 µg/mL in the test on Klebsiella pneumoniae; 150 µg/mL (≈ 437 µM) in the test with Pseudomonas aeruginosa (read-out: MIC); 150 µg/mL (≈ 437 µM) in the test on Staphylococcus aureus; 150 µg/mL (≈ 437 µM) in the test on Bacillus subtilis (read-out: MIC); 150 µg/mL (≈ 437 µM) in test [9] (read-out: MIC); above 150 µg/mL with Escherichia coli.

For `O=C(N/N=C/c1ccc(O)cc1)c1snnc1C(F)(F)F`, the zone of inhibition at 150 µg/mL in the test with Aspergillus niger [1], in the test on Saccharomyces cerevisiae [3], with Diutina rugosa [5] and in the test on Candida albicans [7] was 0 mm in each case. The zone of inhibition at 100 µg/mL with Aspergillus niger [2], with Saccharomyces cerevisiae [4], with Diutina rugosa [6] and in the test on Candida albicans [8] was 0 mm in each case. In addition, the MIC in the test with Klebsiella pneumoniae is above 150 µg/mL; in the test with Pseudomonas aeruginosa, above 150 µg/mL; in the test on Staphylococcus aureus, 150 µg/mL (≈ 474 µM); with Bacillus subtilis (read-out: MIC), 150 µg/mL (≈ 474 µM); in test [9] (read-out: MIC), 150 µg/mL (≈ 474 µM); with Escherichia coli (read-out: MIC), 150 µg/mL (≈ 474 µM).

Turning to `CC1(C)S[C@@H]2[C@H](NC(=O)Cc3ccccc3)C(=O)N2[C@H]1C(=O)O` [PENICILLIN G], the minimal inhibitory concentration (MIC) turned out to be 6.25 µg/mL (≈ 18.7 µM) in the test on Klebsiella pneumoniae (read-out: MIC); 12.5 µg/mL (≈ 37.4 µM) in the test on Pseudomonas aeruginosa (read-out: MIC); 1.56 µg/mL (≈ 4.67 µM) in the test on Staphylococcus aureus; 1.56 µg/mL (≈ 4.67 µM) in the test on Bacillus subtilis (read-out: MIC); 3.12 µg/mL (≈ 9.35 µM) in test [9] (read-out: MIC); 12.5 µg/mL (≈ 37.4 µM) in the test on Escherichia coli (read-out: MIC).

As to `CN[C@@H]1[C@H](O[C@H]2[C@H](O[C@H]3[C@H](O)[C@@H](O)[C@H](N=C(N)N)[C@@H](O)[C@@H]3N=C(N)N)O[C@@H](C)[C@]2(O)C=O)O[C@@H](CO)[C@H](O)[C@H]1O` [STREPTOMYCIN], the MIC was 3.12 µg/mL (≈ 5.37 µM) in the test on Klebsiella pneumoniae (read-out: MIC); 1.56 µg/mL (≈ 2.69 µM) with Pseudomonas aeruginosa (read-out: MIC); 6.25 µg/mL (≈ 10.7 µM) with Staphylococcus aureus; 6.25 µg/mL (≈ 10.7 µM) with Bacillus subtilis (read-out: MIC); 3.12 µg/mL (≈ 5.37 µM) in test [9] (read-out: MIC); 6.25 µg/mL (≈ 10.7 µM) in the test with Escherichia coli (read-out: MIC).
